Test results as given in patent US4737500A, “1-substituted-4-(thiazolyl-2-)-piperazines, -piperidines and -tetrahydropyridines useful as anxiolytic, psychogeriatric, antidepressant and antischizophrenic agents” (priority 1985, dated 1988).

Tests used:
[1] = atypical dozing in the rat-8h-sleep-EEG; format: in vivo; settings: 10 mg/kg p.o.
[2] = target: T1, 5HT-1A-binding sites in the pig cortex (Sus scrofa, UniProt A0A4X1UTF5); assay: 5HT-1A-binding affinity test, binding of 3H-8-hydroxy-2-(di-n-propylamino)-tetraline (3H-PAT)
T1 construct: from tissue; host or cells: pig cortex
T1 sequence (A0A4X1UTF5 1-422): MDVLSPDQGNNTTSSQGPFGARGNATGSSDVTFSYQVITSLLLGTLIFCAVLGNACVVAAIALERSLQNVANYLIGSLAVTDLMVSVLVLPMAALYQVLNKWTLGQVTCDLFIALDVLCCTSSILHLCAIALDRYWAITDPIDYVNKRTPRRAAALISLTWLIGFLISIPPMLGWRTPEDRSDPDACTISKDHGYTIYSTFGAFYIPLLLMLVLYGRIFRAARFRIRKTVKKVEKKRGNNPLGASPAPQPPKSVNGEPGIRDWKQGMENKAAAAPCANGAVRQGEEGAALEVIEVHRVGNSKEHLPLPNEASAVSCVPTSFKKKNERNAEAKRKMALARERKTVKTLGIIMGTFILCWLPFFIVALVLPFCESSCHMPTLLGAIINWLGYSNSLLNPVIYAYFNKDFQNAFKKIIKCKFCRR

[3] = aggression test: social interactions in male mice in aggression-evoking social encounters; format: in vivo, mouse; settings: 0.3 mg/kg p.o. (acute administration)
Description: The compounds of formula I promote social interactions after acute and chronic administration of 0.3 to 10 mg/kg p.o. in male mice in aggression-evoking social encounters [A. K. Dixon, Triangle 21 (1982) 95-105; M. Krsiak, Brit. J. Pharmacol. 55 (1975) 141-150]. […] M. Y. Spiegelstein, A. Levy, Elsevier, Amsterdam (1982) 39-55].

[4] = 8h-sleep-EEG: sleep phases in the sleep/wake cycle in the rat; format: in vivo; settings: 10 mg/kg p.o.; rat 8h-sleep-EEG
Description: Further, the compounds of formula I modify the sleep phases in the sleep/wake cycle in the rat after administration of 3 to 30 mg/kg p.o. [H. Kleinlogel, EEG in Drug Research, Ed. H. Hermann, Gustav Fischer Verlag, Stuttgart, New York, 75-88 (1982)]. In the 8h-EEG, the slow wave phase (SWS) is increased, whereas the spindle phase and the paradoxical sleep phase (PS) are reduced. In Hjorth, parameters are the mean EEG amplitude (CA) and the complexity (CCF) increased.

[5] = reference antidepressants, A. K. Dixon 1982; cited from earlier work
[6] = reference antischizophrenics; Sayers and Kleinlogel 1974; cited from earlier work
[7] = characteristic for antidepressants; H. Kleinlogel, page 83; cited from earlier work

Q: Which results are given for `COc1ccc(Cl)cc1C(=O)NCCN1CCN(c2nc(C(C)(C)C)cs2)CC1` [Example 8, 5-Chloro-2-methoxy-N-(2-(4-(4-(1,1-dimethylethyl)-2-thiazolyl)-1-piperazinyl)ethyl)-benzamide]?
A: atypical dozing [1]: shows atypical dozing; IC50 [2]: 600 nM; promotion of social interactions [3]: promotes social interactions; complexity (CCF) [4]: increased; mean EEG amplitude (CA) [4]: increased; paradoxial sleep phase (PS) [4]: reduces; slow wave phase (SWS) [4]: increases; spindle phase [4]: reduces

Q: With `CN(C)CCC=C1c2ccccc2CCc2ccccc21` [amitriptyline] as the molecule, how does the “promotion of social behaviour” value [5] read?
A: promote social behaviour

Q: Which IC50 [2] does the source give for `O=C1CC2(CCCC2)CC(=O)N1CCCCN1CCN(c2ncccn2)CC1` [buspirone] here?
A: 10 to 400 nM

Q: For `CN1CCN(C2=Nc3cc(Cl)ccc3Nc3ccccc32)CC1` [clozapine], which “atypical dozing characteristic for antischizophrenics” value [6] is on record?
A: atypical dozing characteristic

Q: For `CNCCCN1c2ccccc2CCc2ccccc21` [desipramine], which “decrease of paradoxical sleep phase” value [7] is on record?
A: decrease of paradoxical sleep phase

Q: For `CN(C)CCN1C(=O)c2ccccc2N(C)c2ccccc21` [dibenzepine], which “decrease of paradoxical sleep phase” value [7] is on record?
A: decrease of paradoxical sleep phase

Q: Which “atypical dozing characteristic for antischizophrenics” value [6] does the source give for `O=C(CCCN1CCC(O)(c2ccc(Cl)cc2)CC1)c1ccc(F)cc1` [haloperidol] here?
A: atypical dozing characteristic

Q: For `CN(C)CCCN1c2ccccc2CCc2ccccc21` [imipramine], which “promotion of social behaviour” value [5] is on record?
A: promote social behaviour

Q: What about the “decrease of paradoxical sleep phase” value [7] of the same molecule?
A: decrease of paradoxical sleep phase

Q: For `CN1CCN2c3ccccc3Cc3ccccc3C2C1` (stereo not drawn) [mianserine], which “decrease of paradoxical sleep phase” value [7] is on record?
A: decrease of paradoxical sleep phase

Q: Which “decrease of paradoxical sleep phase” value [7] does the source give for `CN1Cc2c(N)cccc2C(c2ccccc2)C1` (stereo not drawn) [nomifensine] here?
A: decrease of paradoxical sleep phase
